Patent US9795590B2, “Anti-inflammatory agents as virostatic compounds” (Panoptes Pharma GmbH, priority 2014, dated 2017)

Legend:
AKT-1/-2/-3 = test: kinase activity assay AKT; assay type: biochemical; settings: read-out: Inhibitory activity in vitro (IC50) AKT-1/-2/-3
Method: (§1) Pharmacological parameters of compound 1 (Table 2) were determined by standard procedures, i.e. DHODH and kinase activity assays were performed according to Davis et al., (1996. The immunosuppressive metabolite of leflunomide is a potent inhibitor of human dihydroorotate dehydrogenase.

HAdV A31 = test: virus yield assay HAdV A31 in A549; assay type: cell-based, human adenovirus; settings: MOI 20, supernatant transfer 4 d post-infection, n=1
Method: (§2) A549 cells were infected at MOI 20 and continuously treated with the given concentrations of compound 1. Virus-containing supernatants were transferred to uninfected cells at 4 d^1, 6 d^2 or 2 d^3 post-infection, respectively, and used for quantitation of infectious virus. Percentages of virus-positive cells per total cells were determined on the basis of indirect immunofluorescence staining (monoclonal anti-adenovirus hexon protein antibody; Abcam B025-AD51/ab7428) by microscopic countings: n=4 for C02, C05, D19, D37; n=3 for B03k, E04k; n=1 for A31, B03, D08, E04.

A549 = test: drug-induced cytotoxicity, microscopic evaluation, A549; assay type: cell-based; settings: HAdV-2 experiment, A549, 1-10 μM
293T (T81GFP) = test: drug-induced cytotoxicity, microscopic evaluation, 293T (T81GFP); assay type: cell-based; settings: EBV experiment
DHODH (human) = DHODH (human) (Homo sapiens, UniProt Q02127); test: DHODH in vitro enzymatic activity assay (human); assay type: biochemical
Method: as §1

JAK-1/-2/-3 = test: kinase activity assay JAK; assay type: biochemical; settings: read-out: Inhibitory activity in vitro (IC50) JAK-1/-2/-3
Method: as §1

[1] = test system: EBV, Epstein-Barr virus, strain B95-8; test: antiviral assay EBV in 293T (T81GFP); assay type: cell-based; settings: human gammaherpesvirus 4, n = 4, read-out: IC50 of virus replication EBV
Method: (§3) Antiviral assays were performed as described in the literature (Marschall, M. et al., 2000. Antimicrob. Agents Chemother. 44, 1588-1597; Marschall M. et al., 2012. Antimicrob. Agents Chemother. 56, 1135-1137; Kindsmüller et al., 2009. J. Virol. 83, 9045-9056; Rechter et al., 2006. Antiviral Res. 72, 197-206).

HAdV D37 = test: virus yield assay HAdV D37 in A549; assay type: cell-based, human adenovirus; settings: MOI 20, supernatant transfer 6 d post-infection, n=4
Method: as §2

J-JHAN = test: drug-induced cytotoxicity, microscopic evaluation, J-JHAN; assay type: cell-based; settings: HHV-6 experiment
HAdV E04 = test: virus yield assay HAdV E04 in A549; assay type: cell-based, human adenovirus; settings: MOI 20, supernatant transfer 6 d post-infection, n=1
Method: as §2

HAdV E04k = test: virus yield assay HAdV E04k (clinical isolate) in A549; assay type: cell-based, human adenovirus; settings: MOI 20, supernatant transfer 6 d post-infection, n=3
Method: as §2

HAdV C05 = test: virus yield assay HAdV C05 in A549; assay type: cell-based, human adenovirus; settings: MOI 20, supernatant transfer 2 d post-infection, n=4
Method: as §2

[2] = test system: HSV-2, herpes simplex virus type 2, isolate 01-6332; test: antiviral assay HSV-2 in Vero; assay type: cell-based; settings: Human alphaherpesvirus 2, n = 4, read-out: IC50 of virus replication HSV-2
Method: as §3

Vero = test: drug-induced cytotoxicity, microscopic evaluation, Vero; assay type: cell-based
DHODH (mouse) = DHODH (mouse) (Mus musculus, UniProt O35435); test: DHODH in vitro enzymatic activity assay (mouse); assay type: biochemical; settings: read-out: Inhibitory activity in vitro (IC50) DHODH (mouse)
PI3K-α/-β/-γ/-δ = test: kinase activity assay PI3K; assay type: biochemical; settings: read-out: Inhibitory activity in vitro (IC50) PI3K-α/-β/-γ/-δ
Method: as §1

[3] = test system: Vaccina (vaccine virus, strain IHD-5); test: antiviral assay vaccinia virus in primary human fibroblasts; assay type: cell-based; settings: Orthopoxvirus vaccinia, Fibroblast, read-out: IC50 of virus replication Vaccina
Method: as §3

[4] = test system: primary human fibroblasts; test: drug-induced cytotoxicity, microscopic evaluation, primary human fibroblasts; assay type: cell-based
[5] = test system: HSV-1, herpes simplex virus type 1, strain 166v VP22-GFP; test: GFP-based reporter assay HSV-1 in Vero; assay type: cell-based; settings: Human alphaherpesvirus 1, Vero, read-out: IC50 of virus replication HSV-1
Method: as §3

[6] = test system: HHV-6, human herpesvirus type 6A, strain U1102; test: antiviral assay HHV-6 in J-JHAN; assay type: cell-based; settings: n = 8, read-out: IC50 of virus replication HHV-6
Method: as §3

HAdV B03 = test: virus yield assay HAdV B03 in A549; assay type: cell-based, human adenovirus; settings: MOI 20, supernatant transfer 6 d post-infection, n=1
Method: as §2

[7] = test system: Human adenovirus type 2 (HAdV-2); test: plaque reduction assay HAdV-2 in A549; assay type: cell-based; settings: Human mastadenovirus C, A549, n = 8, read-out: IC50 antiviral activity against HAdV-2
Method: as §3

HAdV B03k = test: virus yield assay HAdV B03k (clinical isolate) in A549; assay type: cell-based, human adenovirus; settings: MOI 20, supernatant transfer 6 d post-infection, n=3
Method: as §2

HAdV D08 = test: virus yield assay HAdV D08 in A549; assay type: cell-based, human adenovirus; settings: MOI 20, supernatant transfer 4 d post-infection, n=1
Method: as §2

HAdV D19 = test: virus yield assay HAdV D19 in A549; assay type: cell-based, human adenovirus; settings: MOI 20, supernatant transfer 4 d post-infection, n=4
Method: as §2

[8] = test system: VZV, varicella zoster virus, strain Oka; test: antiviral assay VZV in primary human fibroblasts; assay type: cell-based; settings: Human alphaherpesvirus 3, Fibroblast, read-out: IC50 of virus replication VZV
Method: as §3

HAdV C02 = test: virus yield assay HAdV C02 in A549; assay type: cell-based, human adenovirus; settings: MOI 20, supernatant transfer 2 d post-infection, n=4
Method: as §2

Sequence of DHODH (human) (Q02127 whole entry): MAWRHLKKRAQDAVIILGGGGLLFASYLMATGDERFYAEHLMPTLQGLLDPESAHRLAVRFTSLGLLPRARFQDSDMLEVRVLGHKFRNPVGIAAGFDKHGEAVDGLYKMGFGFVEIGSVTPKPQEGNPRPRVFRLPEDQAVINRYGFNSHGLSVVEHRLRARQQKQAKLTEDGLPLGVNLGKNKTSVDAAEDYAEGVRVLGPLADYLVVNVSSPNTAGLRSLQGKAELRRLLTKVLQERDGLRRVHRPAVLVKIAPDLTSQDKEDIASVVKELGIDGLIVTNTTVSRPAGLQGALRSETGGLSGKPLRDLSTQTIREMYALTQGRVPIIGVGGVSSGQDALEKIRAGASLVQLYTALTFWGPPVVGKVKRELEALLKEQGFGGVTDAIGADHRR
Sequence of DHODH (mouse) (O35435 whole entry): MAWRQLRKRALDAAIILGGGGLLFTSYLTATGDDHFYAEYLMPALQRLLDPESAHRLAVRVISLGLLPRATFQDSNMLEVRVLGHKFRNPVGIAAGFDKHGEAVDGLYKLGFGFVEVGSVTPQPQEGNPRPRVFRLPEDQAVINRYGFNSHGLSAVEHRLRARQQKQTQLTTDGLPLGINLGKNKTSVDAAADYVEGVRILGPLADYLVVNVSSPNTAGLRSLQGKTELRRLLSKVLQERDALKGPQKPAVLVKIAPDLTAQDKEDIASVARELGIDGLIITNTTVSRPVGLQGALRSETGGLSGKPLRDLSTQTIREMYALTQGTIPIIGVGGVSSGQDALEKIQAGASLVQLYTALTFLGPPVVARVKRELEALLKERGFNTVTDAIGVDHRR

O=C(Nc1c(F)c(F)c(-c2cccc(OC(F)(F)F)c2)c(F)c1F)c1ccsc1C(=O)O [compound 1, 3-(2,3,5,6-tetrafluoro-3′-trifluoromethoxy-biphenyl-4-ylcarbamoyl)-thiophene-2-carboxylic acid]
IC50 (AKT-1/-2/-3): > 15000 nM
virus-positive cells (0 μM = 100), HAdV A31 (HAdV A31; 0.37 μM): 72%
virus-positive cells (0 μM = 100), HAdV A31 (HAdV A31; 1.11 μM): 3%
Cytotoxicity [1-10 μM] (A549): None
Cytotoxicity [1-10 μM] (A549; listed as Compound 1): none
Cytotoxicity [1-10 μM] (293T (T81GFP)): none
IC50 (DHODH (human); purified human DHODH, read-out: Inhibitory activity in vitro (IC50) DHODH (human)): 1.5 ± 0.2 nM
IC50 (JAK-1/-2/-3): > 10000 nM
IC50 [1]: > 10000 nM
virus-positive cells (0 μM = 100), HAdV D37 (HAdV D37; 0.37 μM): 96%
virus-positive cells (0 μM = 100), HAdV D37 (HAdV D37; 1.11 μM): 3%
Cytotoxicity [1-10 μM] (J-JHAN): none
virus-positive cells (0 μM = 100), HAdV E04 (HAdV E04; 0.37 μM): 128%
virus-positive cells (0 μM = 100), HAdV E04 (HAdV E04; 1.11 μM): 23%
virus-positive cells (0 μM = 100), HAdV E04k (HAdV E04k; 0.37 μM): 115%
virus-positive cells (0 μM = 100), HAdV E04k (HAdV E04k; 1.11 μM): 9%
virus-positive cells (0 μM = 100), HAdV C05 (HAdV C05; 0.37 μM): 82%
virus-positive cells (0 μM = 100), HAdV C05 (HAdV C05; 1.11 μM): 6%
IC50 [2]: > 10000 nM
Cytotoxicity [1-10 μM] (Vero; HSV-1 experiment): none
Cytotoxicity [1-10 μM] (Vero; HSV-2 experiment): none
IC50 (DHODH (mouse)): 3.2 ± 0.8 nM
IC50 (PI3K-α/-β/-γ/-δ): > 1000 nM
IC50 [3]: 9850 ± 6610 nM
Cytotoxicity [1-10 μM] ([4]; VZV experiment): none
Cytotoxicity [1-10 μM] ([4]; Vaccina experiment): none
IC50 [5]: > 10000 nM
IC50 [6]: 1550 ± 310 nM
virus-positive cells (0 μM = 100), HAdV B03 (HAdV B03; 0.37 μM): 127%
virus-positive cells (0 μM = 100), HAdV B03 (HAdV B03; 1.11 μM): 29%
IC50 [7]: 560 ± 20 nM
virus-positive cells (0 μM = 100), HAdV B03k (HAdV B03k; 0.37 μM): 70%
virus-positive cells (0 μM = 100), HAdV B03k (HAdV B03k; 1.11 μM): 11%
virus-positive cells (0 μM = 100), HAdV D08 (HAdV D08; 0.37 μM): 6%
virus-positive cells (0 μM = 100), HAdV D08 (HAdV D08; 1.11 μM): 0%
virus-positive cells (0 μM = 100), HAdV D19 (HAdV D19; 0.37 μM): 81%
virus-positive cells (0 μM = 100), HAdV D19 (HAdV D19; 1.11 μM): 4%
IC50 [8]: 3550 ± 260 nM
virus-positive cells (0 μM = 100), HAdV C02 (HAdV C02; 0.37 μM): 100%
virus-positive cells (0 μM = 100), HAdV C02 (HAdV C02; 1.11 μM): 9%

Nc1nc2c(ncn2COC(CO)CO)c(=O)[nH]1 [GCV, reference compound]
DHODH activity remaining (DHODH (human); at 10 μM, duplicate testings): 100%
